Data as given in the CheMixHub viscosity set.

Assay: xn = mol fraction of the nth substance listed

CN1CCOC1=O + CS(C)=O
viscosity [mPa·s], 101.33 kPa
Settings	298.15 K	308.15 K	318.15 K
x1 = 0.0465	2.004	1.663	1.404
x1 = 0.0841	2.012	1.673	1.413
x1 = 0.1676	2.037	1.698	1.437
x1 = 0.2419	2.06	1.72	1.459
x1 = 0.3415	2.09	1.751	1.49
x1 = 0.4275	2.126	1.782	1.518
x1 = 0.5401	2.171	1.826	1.558
x1 = 0.6395	2.218	1.872	1.603
x1 = 0.7524	2.28	1.923	1.645
x1 = 0.8785	2.359	1.99	1.703
x1 = 0.9514	2.415	2.038	1.744

CCCC[NH3+].O=[N+]([O-])[O-] + O
Settings	viscosity [mPa·s]
298.15 K, 101 kPa, x1 = 0.9022	65.05

CC1(C)OC1C#N (configuration not stated) + ClC(Cl)(Cl)Cl
viscosity [mPa·s], 101 kPa
Settings	293.15 K	298.15 K	303.15 K	313.15 K	323.15 K
x1 = 0.009	0.983	0.938	0.906	0.779	0.67
x1 = 0.087	0.98	0.937	0.877	0.754	0.675

ClCCCCl + CC(C)CO
viscosity [mPa·s], 101 kPa
Settings	x1 = 0.0989	x1 = 0.2041	x1 = 0.3021	x1 = 0.3988	x1 = 0.5019	x1 = 0.602	x1 = 0.704	x1 = 0.8027	x1 = 0.8982
298.15 K	2.523	1.948	1.604	1.373	1.194	1.078	1.001	0.9476	0.9412
313.15 K	1.637	1.327	1.127	1.001	0.8964	0.8306	0.789	0.7599	0.7565

CCCN(CCC)CCC + CCC(C)O
303.15 K, 101 kPa
Settings	viscosity [mPa·s]
x1 = 0.009049	2.448
x1 = 0.02003	2.423
x1 = 0.02982	2.4
x1 = 0.04	2.379
x1 = 0.05207	2.352
x1 = 0.06138	2.332
x1 = 0.06704	2.317
x1 = 0.07865	2.291
x1 = 0.09178	2.264

CCOC(=O)CC(=O)OCC + CC(=O)c1ccccc1
viscosity [mPa·s], 101 kPa
Settings	x1 = 0.0812	x1 = 0.1401	x1 = 0.2516	x1 = 0.3486	x1 = 0.4322	x1 = 0.5248	x1 = 0.6335	x1 = 0.7384	x1 = 0.8256	x1 = 0.9278
303.15 K	1.564	1.587	1.626	1.655	1.677	1.697	1.714	1.727	1.732	1.738
308.15 K	1.412	1.43	1.461	1.487	1.506	1.524	1.54	1.55	1.559	1.567
313.15 K	1.315	1.334	1.363	1.384	1.4	1.416	1.43	1.44	1.446	1.454

CCOC(=O)CC(=O)OCC + O=C1CCCC1
viscosity [mPa·s], 101 kPa
Settings	x1 = 0.0758	x1 = 0.1566	x1 = 0.2437	x1 = 0.3678	x1 = 0.4601	x1 = 0.5678	x1 = 0.6456	x1 = 0.7598	x1 = 0.8459	x1 = 0.9215
303.15 K	1.061	1.125	1.193	1.288	1.356	1.433	1.487	1.565	1.624	1.675
308.15 K	0.981	1.038	1.098	1.18	1.24	1.307	1.355	1.425	1.477	1.524
313.15 K	0.913	0.964	1.018	1.094	1.15	1.213	1.257	1.321	1.369	1.412

CCCCCCCCCCCCCC[P+](CCCCCC)(CCCCCC)CCCCCC.c1ccc2[n-]cnc2c1 + O=C=O
Settings	viscosity [mPa·s]
298.15 K, 100 kPa, x2 = 0.545	388
